{
  "source": "paper PMC10914731",
  "about": "“Homo-BacPROTAC-induced degradation of ClpC1 as a strategy against drug-resistant mycobacteria” (Nature Communications, 2024)",
  "key": {"[1]": {"molecular_target": "ClpC1 NTD protein (M. tuberculosis) (Mycobacterium tuberculosis, UniProt P9WPC9)", "sequence (P9WPC9 1-156, looked up, natural form)": "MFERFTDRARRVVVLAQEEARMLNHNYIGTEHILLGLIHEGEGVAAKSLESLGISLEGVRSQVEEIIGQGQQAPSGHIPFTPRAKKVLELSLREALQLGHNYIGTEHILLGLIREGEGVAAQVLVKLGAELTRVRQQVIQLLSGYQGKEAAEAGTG", "test": "biochemical", "type": "binding"}, "[2]": {"tested_on": "Caco-2 monolayers", "test": "in vitro", "how_it_was_run": "(§1)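 Values are bidirectional Caco-2 apparent permeabilities, P(A−B) and P(B−A), given in 10^-6 cm s-1. The efflux ratio divides P(B−A) by P(A−B), and intrinsic permeability averages the two directions.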"}, "[3]": {"test": "Microsomal stability, human", "type": "in vitro ADME", "settings": "Human", "procedure": "The kinetics of compound degradation in liver microsomes is assessed in an assay with 1 µmol/l of compound and 0.5 mg/ml liver microsomes in a medium of 100 mM Tris-HCl pH 7.5, 6.5 mM MgCl2 and 1 mM NADPH at 37 °C. The reaction is stopped at multiple time points by adding acetonitrile. After centrifugation, the compound concentration is measured in the supernatants by high-performance liquid chromatography (HPLC) tandem mass spectrometry (MS/MS). The results are fitted to a first-order decay and the half-lives are converted to clearance (stated as % of the liver blood flow (%Qh)) using the well-stirred liver model."}, "[4]": {"test": "Hepatocyte stability, mice", "type": "in vitro ADME", "settings": "clearance in hepatocytes", "how_it_was_run": "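Clearance expressed as % of liver blood flow (% Qh), derived from half-life via the well-stirred liver model. Compound at 1 µM final was incubated up to 6 h with ~1 million cells/mL hepatocytes in 50% serum buffer, 37 °C, pH 7.4.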"}, "[5]": {"type": "in vitro ADME, Rat"}, "[6]": {"type": "in vitro ADME, Human"}, "[7]": {"tested_on": "M. tuberculosis H37Rv (ATCC 27294)", "test": "microbe, parasite or virus in culture", "type": "cell-based"}, "[8]": {"tested_on": "Msm 607", "test": "microbe, parasite or virus in culture", "type": "cell-based"}, "[9]": {"tested_on": "Msm 700084", "test": "microbe, parasite or virus in culture", "type": "cell-based"}, "[10]": {"molecular_target": "His6-tagged ClpC1-NTD substrate, M. smegmatis ClpC1P1P2 (UniProt A0R574+P9WPC9)", "sequence (P9WPC9 1-156, looked up, natural form)": "as above", "sequence (A0R574 whole entry)": "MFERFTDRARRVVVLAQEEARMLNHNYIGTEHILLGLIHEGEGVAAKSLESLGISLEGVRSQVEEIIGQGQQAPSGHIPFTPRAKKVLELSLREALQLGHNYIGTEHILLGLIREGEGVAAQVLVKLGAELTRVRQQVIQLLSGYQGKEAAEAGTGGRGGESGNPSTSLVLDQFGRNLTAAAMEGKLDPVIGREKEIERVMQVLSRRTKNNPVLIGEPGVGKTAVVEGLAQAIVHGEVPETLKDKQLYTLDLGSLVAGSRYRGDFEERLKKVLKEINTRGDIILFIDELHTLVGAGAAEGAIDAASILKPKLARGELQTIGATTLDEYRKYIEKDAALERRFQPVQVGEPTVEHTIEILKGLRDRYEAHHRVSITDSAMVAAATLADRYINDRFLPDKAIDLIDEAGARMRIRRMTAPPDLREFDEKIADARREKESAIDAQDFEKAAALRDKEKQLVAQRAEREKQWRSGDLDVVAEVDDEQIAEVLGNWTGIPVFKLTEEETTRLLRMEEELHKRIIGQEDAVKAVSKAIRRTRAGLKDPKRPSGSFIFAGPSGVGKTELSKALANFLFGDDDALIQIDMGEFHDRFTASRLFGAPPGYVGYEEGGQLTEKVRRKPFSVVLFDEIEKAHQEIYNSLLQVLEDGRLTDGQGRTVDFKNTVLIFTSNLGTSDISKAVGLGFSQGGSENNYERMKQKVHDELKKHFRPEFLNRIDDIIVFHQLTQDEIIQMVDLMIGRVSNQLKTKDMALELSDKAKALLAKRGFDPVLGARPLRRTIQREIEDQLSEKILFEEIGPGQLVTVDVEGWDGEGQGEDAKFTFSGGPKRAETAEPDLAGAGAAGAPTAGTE", "test": "biochemical", "type": "biochemical"}, "[11]": {"molecular_target": "ClpC1-NTD substrate, M. tuberculosis ClpC1P1P2 (Mycobacterium tuberculosis, UniProt P9WPC9)", "sequence (P9WPC5 whole entry)": "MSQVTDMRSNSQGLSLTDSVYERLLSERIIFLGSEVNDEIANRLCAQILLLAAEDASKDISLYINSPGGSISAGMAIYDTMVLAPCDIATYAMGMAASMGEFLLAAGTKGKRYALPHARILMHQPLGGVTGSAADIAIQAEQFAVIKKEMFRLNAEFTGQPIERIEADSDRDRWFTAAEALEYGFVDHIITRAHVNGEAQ", "sequence (P9WPC9 whole entry)": "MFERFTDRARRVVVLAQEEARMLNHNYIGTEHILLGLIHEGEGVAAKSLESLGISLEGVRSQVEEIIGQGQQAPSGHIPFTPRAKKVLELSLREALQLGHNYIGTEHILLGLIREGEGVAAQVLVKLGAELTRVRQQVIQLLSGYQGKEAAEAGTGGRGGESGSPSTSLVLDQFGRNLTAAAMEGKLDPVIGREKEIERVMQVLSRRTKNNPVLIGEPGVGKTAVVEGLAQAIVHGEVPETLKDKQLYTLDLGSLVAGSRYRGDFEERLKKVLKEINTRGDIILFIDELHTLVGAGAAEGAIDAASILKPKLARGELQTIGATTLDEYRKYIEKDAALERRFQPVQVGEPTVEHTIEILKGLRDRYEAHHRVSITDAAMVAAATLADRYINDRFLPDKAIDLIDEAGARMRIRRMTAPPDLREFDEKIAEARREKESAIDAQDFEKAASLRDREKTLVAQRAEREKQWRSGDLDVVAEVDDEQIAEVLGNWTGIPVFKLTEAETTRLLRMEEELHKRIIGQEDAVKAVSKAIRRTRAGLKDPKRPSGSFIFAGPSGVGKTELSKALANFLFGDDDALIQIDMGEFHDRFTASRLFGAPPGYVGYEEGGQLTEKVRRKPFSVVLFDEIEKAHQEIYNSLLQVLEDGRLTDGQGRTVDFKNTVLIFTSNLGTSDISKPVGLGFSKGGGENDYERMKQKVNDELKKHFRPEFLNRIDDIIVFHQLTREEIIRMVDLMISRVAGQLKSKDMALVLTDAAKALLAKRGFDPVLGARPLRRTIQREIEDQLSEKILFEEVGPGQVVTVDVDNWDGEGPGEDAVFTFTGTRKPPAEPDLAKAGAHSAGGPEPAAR", "sequence (P9WPC3 whole entry, further chain)": "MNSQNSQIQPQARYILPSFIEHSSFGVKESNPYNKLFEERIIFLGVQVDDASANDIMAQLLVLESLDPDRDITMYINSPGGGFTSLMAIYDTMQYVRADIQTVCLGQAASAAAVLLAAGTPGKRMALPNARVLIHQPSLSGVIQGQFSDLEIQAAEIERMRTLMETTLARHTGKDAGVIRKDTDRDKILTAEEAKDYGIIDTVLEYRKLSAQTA", "test": "biochemical", "type": "biochemical"}, "[12]": {"test": "in vitro", "settings": "human", "how_it_was_run": "as §1"}, "[13]": {"settings": "read-out: DC50, single measurements"}},
  "note": "Values joined by “and” are separate entries in the source; they are usually repeats but may differ in a detail not shown here. Equal values may be shown once. Read-outs that look alike come from different tables or passages of the source.",
  "data": [
    {"smiles": "COC(c1ccc(OCc2cn(CCOCCOCCOCCOCCn3cc(COc4ccc(C(OC)C5NC(=O)C(C)NC(=O)C(CC(C)CO)N(C)C(=O)C(Cc6cn(C)c7ccccc67)NC(=O)C(C(C)C)NC(=O)C(CC(C)C)N(C)C(=O)C(C(C)C)NC5=O)cc4)nn3)nn2)cc1)C1NC(=O)C(C)NC(=O)C(CC(C)CO)N(C)C(=O)C(Cc2cn(C)c3ccccc23)NC(=O)C(C(C)C)NC(=O)C(CC(C)C)N(C)C(=O)C(C(C)C)NC1=O", "note": "(stereo not shown) [SI-39]", "values": [
      {"measurement": "koff ClpC1-NTD", "setting": "[1]", "result": "1E-3 7E-4 1/s"},
      {"measurement": "Kd", "setting": "[1]; read-out: KD ClpC1-NTD", "result": "0.000477 µM and 0.000422 µM"},
      {"measurement": "Kd", "setting": "[1]; read-out: KD ClpC1-NTD Mean ± SD", "result": "0.00045 ± 4e-05", "unit": "µM"},
      {"measurement": "CACO permeability PEAB", "setting": "[2]; Caco-2", "result": "<0.000", "unit": "cm/sec"},
      {"measurement": "CACO permeability PEBA", "setting": "[2]; Caco-2", "result": "<0.000", "unit": "cm/sec"},
      {"measurement": "Caco-2 Int. Perm", "setting": "[2]; Caco-2", "result": "2.9 10-6 cm s-1"},
      {"measurement": "Caco-2 permeability P (A-B)", "setting": "[2]; Caco-2", "result": "< 4.1 10-6 cm s-1"},
      {"measurement": "Caco-2 permeability P (B-A)", "setting": "[2]; Caco-2", "result": "< 1.7 10-6 cm s-1"},
      {"measurement": "Microsomal Stability Human QH", "setting": "[3]", "result": 39.3, "unit": "%"},
      {"measurement": "Hepatocyte Mice", "setting": "[4]", "result": 15, "unit": "%Qh"},
      {"measurement": "Hepatocyte Rat", "setting": "[5]", "result": 6, "unit": "%Qh"},
      {"measurement": "Hepatocyte Stability Rat QH", "setting": "[5]", "result": 6.192, "unit": "%"},
      {"measurement": "Hepatocyte Human", "setting": "[6]", "result": 12, "unit": "%Qh"},
      {"measurement": "Hepatocyte Stability Human QH", "setting": "[6]", "result": 12.386, "unit": "%"},
      {"measurement": "MIC", "setting": "[7]; Mtb H37Rv (Supplementary Table 2), read-out: MIC Mtb", "result": 0.2, "unit": "µM"},
      {"measurement": "MIC", "setting": "[7]; single determinations, read-out: Mtb MIC", "result": 0.195, "unit": "µM"},
      {"measurement": "Msm 607 MIC", "setting": "[8]; single determinations", "result": 12.500, "unit": "µM"},
      {"measurement": "MIC", "setting": "[9]; single determinations, read-out: Msm 700084 MIC", "result": 12.500, "unit": "µM"},
      {"measurement": "1-Dmax, Mean", "setting": "[10]", "result": 88, "unit": "%"},
      {"measurement": "1-Dmax, single measurements", "setting": "[10]", "result": "79.0% and 91.3% and 94.4%"},
      {"measurement": "DC50", "setting": "[10]; read-out: DC50, Mean", "result": 5.8, "unit": "µM"},
      {"measurement": "DC50", "setting": "[10]; [13]", "result": "6.5 µM and 5.3 µM and 5.6 µM"},
      {"measurement": "1-Dmax, Mean", "setting": "[11]", "result": 73, "unit": "%"},
      {"measurement": "1-Dmax, single measurements", "setting": "[11]", "result": "79.7% and 65.9% and 73.8%"},
      {"measurement": "DC50", "setting": "[11]; read-out: DC50, Mean", "result": 7.7, "unit": "µM"},
      {"measurement": "DC50", "setting": "[11]; [13]", "result": "8.5 µM and 5.9 µM and 8.7 µM"}
    ]},
    {"smiles": "CO[C@H](c1ccc(OCc2cn(CCCCCn3cc(COc4ccc([C@@H](OC)[C@@H]5NC(=O)[C@H](C)NC(=O)[C@H](C[C@@H](C)CO)N(C)C(=O)[C@H](Cc6cn(C)c7ccccc67)NC(=O)[C@H](C(C)C)NC(=O)[C@H](CC(C)C)N(C)C(=O)[C@H](C(C)C)NC5=O)cc4)nn3)nn2)cc1)[C@@H]1NC(=O)[C@H](C)NC(=O)[C@H](C[C@@H](C)CO)N(C)C(=O)[C@H](Cc2cn(C)c3ccccc23)NC(=O)[C@H](C(C)C)NC(=O)[C@H](CC(C)C)N(C)C(=O)[C@H](C(C)C)NC1=O", "note": "[SI-40]", "values": [
      {"measurement": "Kd", "setting": "[1]; SPR (Supplementary Table 1), read-out: KD ClpC1-NTD Mean ± SD", "result": "0.00066 ± 4e-05", "unit": "µM"},
      {"measurement": "koff ClpC1-NTD", "setting": "[1]; SPR, single independent measurements", "result": 0.0009, "unit": "s⁻¹"},
      {"measurement": "Kd", "setting": "[1]; SPR, single independent measurements, read-out: KD ClpC1-NTD", "result": "0.000686 µM and 0.000636 µM"},
      {"measurement": "koff", "setting": "[1]; SPR, single independent measurements, read-out: koff ClpC1-NTD", "result": 0.001, "unit": "s⁻¹"},
      {"measurement": "Papp A→B", "setting": "[12]; Caco-2, Caco-2 permeability P (A-B), apical to basolateral", "result": "< 2.5", "unit": "×10⁻⁶ cm/s"},
      {"measurement": "Papp B→A", "setting": "[12]; Caco-2, Caco-2 permeability P (B-A), basolateral to apical", "result": "< 0.7", "unit": "×10⁻⁶ cm/s"},
      {"measurement": "Caco-2 Int. Perm", "setting": "[2]; mean value of P(A−B) and P(B−A)", "result": "1.60 10-6 cm s-1"},
      {"measurement": "Hepatocyte Mice", "setting": "[4]", "result": 15, "unit": "%Qh"},
      {"measurement": "Hepatocyte Stability Rat QH", "setting": "[5]; Rat", "result": 11.911, "unit": "%"},
      {"measurement": "Hepatocyte Rat", "setting": "[5]; clearance in hepatocytes", "result": 12, "unit": "%Qh"},
      {"measurement": "Hepatocyte Stability Human QH", "setting": "[6]; Human", "result": 25.024, "unit": "%"},
      {"measurement": "MIC", "setting": "[7]; Mycobacterium tuberculosis, Mtb H37Rv (Supplementary Table 2), read-out: MIC Mtb", "result": 0.2, "unit": "µM"},
      {"measurement": "MIC", "setting": "[7]; Mycobacterium tuberculosis, single determinations, read-out: Mtb MIC", "result": 0.195, "unit": "µM"},
      {"measurement": "MIC", "setting": "[8]; Mycolicibacterium smegmatis, 607, read-out: MIC Msm 607", "result": "> 50", "unit": "µM"},
      {"measurement": "MIC", "setting": "[8]; Mycolicibacterium smegmatis, 607, read-out: Msm 607 MIC, single determinations", "result": "> 50", "unit": "µM"},
      {"measurement": "MIC", "setting": "[9]; Mycolicibacterium smegmatis, 700084, single determinations, read-out: Msm 700084 MIC", "result": "> 50", "unit": "µM"},
      {"measurement": "MIC", "setting": "[9]; Mycolicibacterium smegmatis, 700084, read-out: MIC Msm 700084", "result": "> 50", "unit": "µM"}
    ]}
  ]
}
